Measured values published in patent publication US6071902A, “Method for treating excessive aggression” (Eli Lilly and Company, priority 1997, dated 2000).

Legend:
5-HT1C receptor = experiment: pharmacological studies, 5-HT1C receptor activity
excessive aggression = experiment: double-blind multicenter clinical trial, olanzapine or placebo; type: in vivo, human; details: patients randomized to olanzapine or placebo
Excerpt: A double-blind multicenter clinical trial was designed to assess the safety and efficacy of olanzapine. Patients were randomized to olanzapine or placebo.

[1] = detection of radiolabelled olanzapine in saliva; type: in vivo
Method: For example, in the treatment of adult humans, dosages of from 5 to 20 mg per day may be used. A once a day dosage is normally sufficient, although divided doses may be administered. For treatment of extreme aggression, a dose range of from 5 to 20 mg per day is suitable.

[2] = test system: muscarinic cholinergic receptor; experiment: pharmacological studies, muscarinic cholinergic receptor activity

## Cc1cc2c(s1)Nc1ccccc1N=C2N1CCN(C)CC1 [olanzapine, 2-methyl-4-(4-methyl-1-piperazinyl)-10H-thieno[2,3-b][1,5]benzodiazepine]
5-HT1C receptor
  activity at the 5-HT1C receptor: active
Excessive aggression
  efficacy in treatment of excessive aggression: can be useful for the treatment of excessive aggression
[1]
  detection in saliva: can be detected in the saliva
[2]
  muscarinic cholinergic receptor activity: has muscarinic cholinergic receptor activity
